SMILES strings stand for the structures.

One may read the IC50 as the concentration that inhibits the measured activity by half.

Common to all, as to format: protein-complex assay
Test [1] addresses T1, Neuronal acetylcholine receptor; alpha4/beta2 (Rattus norvegicus, UniProt P09483+P12390). In words: Inhibition of [3H](-)-nicotine binding to recombinant rat alpha4-beta2 nAChR.
For test [2], the target named is T1, Neuronal acetylcholine receptor; alpha4/beta2. In words: Inhibition of [3H](-)-nicotine binding to recombinant rat alpha4-beta2 nAChR was determined; experiment 2.
For test [3] the target is unchanged. Briefly: Inhibition of [3H](-)-nicotine binding to recombinant rat alpha4-beta2 nAChR was determined; experiment 1.

T1 sequence (P09483 whole entry): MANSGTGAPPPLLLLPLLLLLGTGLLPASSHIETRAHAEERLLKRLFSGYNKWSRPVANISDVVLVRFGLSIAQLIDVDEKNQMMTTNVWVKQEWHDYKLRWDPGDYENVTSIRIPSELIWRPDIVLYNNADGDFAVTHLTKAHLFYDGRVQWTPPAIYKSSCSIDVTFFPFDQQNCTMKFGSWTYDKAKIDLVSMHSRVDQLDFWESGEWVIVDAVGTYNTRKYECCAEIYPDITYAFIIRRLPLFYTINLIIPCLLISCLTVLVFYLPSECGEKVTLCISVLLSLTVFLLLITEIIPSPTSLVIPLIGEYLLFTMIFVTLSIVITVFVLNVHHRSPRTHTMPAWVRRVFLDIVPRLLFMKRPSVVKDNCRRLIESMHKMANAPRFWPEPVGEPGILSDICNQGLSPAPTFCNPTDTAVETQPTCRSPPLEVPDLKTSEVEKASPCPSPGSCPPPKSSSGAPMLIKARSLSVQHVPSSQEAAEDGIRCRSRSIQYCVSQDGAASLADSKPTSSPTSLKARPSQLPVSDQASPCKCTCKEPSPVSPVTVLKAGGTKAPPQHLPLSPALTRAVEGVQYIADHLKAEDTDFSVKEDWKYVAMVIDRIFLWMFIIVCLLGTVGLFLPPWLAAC
T1 sequence (P12390 whole entry): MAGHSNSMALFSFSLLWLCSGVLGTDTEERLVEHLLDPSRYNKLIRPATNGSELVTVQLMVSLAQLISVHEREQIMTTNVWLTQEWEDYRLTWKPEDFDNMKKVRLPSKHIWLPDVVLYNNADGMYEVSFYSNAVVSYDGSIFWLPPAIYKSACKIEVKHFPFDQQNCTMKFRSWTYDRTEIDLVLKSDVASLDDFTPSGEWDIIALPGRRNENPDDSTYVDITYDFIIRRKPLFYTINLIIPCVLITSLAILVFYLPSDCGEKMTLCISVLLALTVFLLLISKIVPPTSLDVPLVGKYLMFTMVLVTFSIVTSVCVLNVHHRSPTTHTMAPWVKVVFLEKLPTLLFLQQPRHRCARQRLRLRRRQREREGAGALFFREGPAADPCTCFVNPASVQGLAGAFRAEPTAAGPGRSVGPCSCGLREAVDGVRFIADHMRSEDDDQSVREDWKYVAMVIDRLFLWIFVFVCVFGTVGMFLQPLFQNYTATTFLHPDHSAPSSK

In the case of `Clc1ccc(Cn2ccnc2)cn1`, in test [1], the IC50 is 0.45 µM.
Regarding `NC1=NCCCS1`, in test [1], the half-inhibitory concentration (IC50) is 160 µM.
With `Clc1ccc(CN2CCN(Cc3ccc(Cl)nc3)CC2)cn1`, the values for the IC50 in test [2] and in test [3] were 1.65 µM and 1.74 µM, respectively.
For the compound `SC1=NCCN1Cc1ccc(Cl)nc1`, the half-inhibitory concentration (IC50) in test [2] came to 13.5 µM; in test [3], 12.6 µM.
For `NC1=NCCO1`, the 50% inhibitory concentration (IC50) in test [2] came to 95.3 µM; in test [3], 99.5 µM.
Take `CN1CCCC1c1ccc(Cl)nc1` (stereo not drawn): the 50% inhibitory concentration (IC50) in test [1] stood at 0.0019 µM.
Same read-out and setting: next, `CN1CCCC1c1cccnc1Cl` (stereo not drawn): 3.2 µM.
The same measure, in the same setting: then `O=C1NCCN1Cc1ccc(Cl)nc1`, with 8.1 µM.
Still for that read-out and setting: then `CCN(Cc1ccc(Cl)nc1)C(=N)NC`, with 3.3 µM; and `N=C1NCCN1Cc1ccc(Cl)nc1` [DESNITROIMIDACLOPRID], with 0.006 µM.

Values taken from ChEMBL document CHEMBL1132245, “Novel and potent 6-chloro-3-pyridinyl ligands for the alpha4beta2 neuronal nicotinic acetylcholine receptor” (J Med Chem, 1999).
